Reference: PMC2628638, “Catalytic inhibition of topoisomerase II by a novel rationally designed ATP-competitive purine analogue” (BMC Chemical Biology, 2009)

How the values were obtained:
HL-60 cells = experiment: Proliferation assay over 72 hours; assay type: cell-based; conditions: Homo sapiens, read-out: half-maximal growth inhibitory concentration (GI50)
PDK1 = PDK1 (Homo sapiens, UniProt O15530); experiment: Radiometric filter binding kinase assay; assay type: biochemical
Text: (§1) Based on homology structural models of the target, a purine scaffold was designed interactively using the Macromodel modeling software. The designed purine scaffold was subsequently used as a substructure query to search the Novartis compound collection. Around 50 molecules were retrieved in this manner and screened in an ATPase assay using purified full length tagged human topoisomerase II alpha. […] Subsequently, we carried out kinetic analysis with QAP 1 in order to corroborate the mode of action. […] The data were analyzed by non-linear regression analysis using the equations corresponding to competitive, uncompetitive, and mixed inhibition (see Methods) and a statistical analysis (F-test; p ≤ 0.05) was carried out to identify the best model. […] A linearized representation (Eady-Hofstee) of one of these experiments is depicted in Figure 1D. To confirm the mode of action of QAP 1, inhibition studies were also carried out in the presence of different concentration of the inhibitor at different ATP concentrations and the IC50 values were determined. […] Next, QAP 1 was tested against a panel of kinases in a radiometric assay. With the exception of subtle inhibition of the Ret and c-Src tyrosine kinases no effect of the compound was observed on other kinases in the panel, even at the highest concentration tested (Table 1). Thus, QAP 1 is a relatively potent inhibitor of topoisomerase II ATPase function with fairly good selectivity over various serine/threonine/tyrosine protein kinases. To test if QAP 1 inhibited topoisomerase II DNA strand passage activity, nuclear extracts of HL-60 leukemic cells were incubated with catenated kDNA in the presence of increasing concentrations of QAP 1.

Fak = Fak (Homo sapiens, UniProt Q05397); experiment: Radiometric filter binding kinase assay; assay type: biochemical
Text: as §1

Axl = Axl (Homo sapiens, UniProt P30530); experiment: Radiometric filter binding kinase assay; assay type: biochemical
Text: as §1

IGF-1R = IGF-1R (Homo sapiens, UniProt P08069); experiment: Radiometric filter binding kinase assay; assay type: biochemical
Chain of IGF-1R (P08069 31-1367, species assumed): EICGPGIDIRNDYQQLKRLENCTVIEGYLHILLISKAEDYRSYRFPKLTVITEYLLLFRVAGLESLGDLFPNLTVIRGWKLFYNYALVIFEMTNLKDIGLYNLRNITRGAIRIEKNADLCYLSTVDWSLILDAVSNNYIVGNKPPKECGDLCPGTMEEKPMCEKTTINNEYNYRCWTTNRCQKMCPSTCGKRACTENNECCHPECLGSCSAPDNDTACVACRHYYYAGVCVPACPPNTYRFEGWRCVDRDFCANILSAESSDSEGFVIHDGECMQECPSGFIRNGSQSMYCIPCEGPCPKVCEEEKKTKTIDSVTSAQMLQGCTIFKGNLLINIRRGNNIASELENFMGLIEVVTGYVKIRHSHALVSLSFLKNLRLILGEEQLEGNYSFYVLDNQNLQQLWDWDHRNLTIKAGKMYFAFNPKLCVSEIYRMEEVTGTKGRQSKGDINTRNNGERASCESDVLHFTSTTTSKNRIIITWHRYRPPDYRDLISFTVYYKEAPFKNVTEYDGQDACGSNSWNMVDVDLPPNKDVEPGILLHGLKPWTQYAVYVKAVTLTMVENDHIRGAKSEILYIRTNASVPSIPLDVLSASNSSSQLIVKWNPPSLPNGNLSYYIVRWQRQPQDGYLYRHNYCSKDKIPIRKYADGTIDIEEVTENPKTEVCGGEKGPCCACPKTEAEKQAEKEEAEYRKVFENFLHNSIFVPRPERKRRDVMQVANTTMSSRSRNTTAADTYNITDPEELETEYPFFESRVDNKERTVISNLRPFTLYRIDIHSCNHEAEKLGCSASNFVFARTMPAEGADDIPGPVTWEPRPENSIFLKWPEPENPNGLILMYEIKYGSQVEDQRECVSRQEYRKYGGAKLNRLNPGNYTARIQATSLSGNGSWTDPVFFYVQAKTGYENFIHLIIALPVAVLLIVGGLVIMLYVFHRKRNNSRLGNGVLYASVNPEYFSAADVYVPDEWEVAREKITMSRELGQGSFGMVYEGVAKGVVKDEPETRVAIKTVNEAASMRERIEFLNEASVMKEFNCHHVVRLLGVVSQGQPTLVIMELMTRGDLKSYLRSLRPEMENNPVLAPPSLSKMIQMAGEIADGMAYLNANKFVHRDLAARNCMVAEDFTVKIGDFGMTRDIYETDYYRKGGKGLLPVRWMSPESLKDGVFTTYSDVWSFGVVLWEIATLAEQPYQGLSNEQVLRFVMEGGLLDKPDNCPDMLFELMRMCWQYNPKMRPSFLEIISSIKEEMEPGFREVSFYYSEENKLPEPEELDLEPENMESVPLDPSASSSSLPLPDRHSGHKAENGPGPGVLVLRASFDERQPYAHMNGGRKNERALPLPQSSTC
Text: as §1

KDR = KDR (Homo sapiens, UniProt P35968); experiment: Radiometric filter binding kinase assay; assay type: biochemical
Text: as §1

c-Abl-T315I = c-Abl-T315I (Homo sapiens, UniProt P00519, T315I); experiment: Radiometric filter binding kinase assay; assay type: biochemical
Text: as §1

EphB4 = EphB4 (Homo sapiens, UniProt P54760); experiment: Radiometric filter binding kinase assay; assay type: biochemical
Chain of EphB4 (P54760 16-987, species assumed): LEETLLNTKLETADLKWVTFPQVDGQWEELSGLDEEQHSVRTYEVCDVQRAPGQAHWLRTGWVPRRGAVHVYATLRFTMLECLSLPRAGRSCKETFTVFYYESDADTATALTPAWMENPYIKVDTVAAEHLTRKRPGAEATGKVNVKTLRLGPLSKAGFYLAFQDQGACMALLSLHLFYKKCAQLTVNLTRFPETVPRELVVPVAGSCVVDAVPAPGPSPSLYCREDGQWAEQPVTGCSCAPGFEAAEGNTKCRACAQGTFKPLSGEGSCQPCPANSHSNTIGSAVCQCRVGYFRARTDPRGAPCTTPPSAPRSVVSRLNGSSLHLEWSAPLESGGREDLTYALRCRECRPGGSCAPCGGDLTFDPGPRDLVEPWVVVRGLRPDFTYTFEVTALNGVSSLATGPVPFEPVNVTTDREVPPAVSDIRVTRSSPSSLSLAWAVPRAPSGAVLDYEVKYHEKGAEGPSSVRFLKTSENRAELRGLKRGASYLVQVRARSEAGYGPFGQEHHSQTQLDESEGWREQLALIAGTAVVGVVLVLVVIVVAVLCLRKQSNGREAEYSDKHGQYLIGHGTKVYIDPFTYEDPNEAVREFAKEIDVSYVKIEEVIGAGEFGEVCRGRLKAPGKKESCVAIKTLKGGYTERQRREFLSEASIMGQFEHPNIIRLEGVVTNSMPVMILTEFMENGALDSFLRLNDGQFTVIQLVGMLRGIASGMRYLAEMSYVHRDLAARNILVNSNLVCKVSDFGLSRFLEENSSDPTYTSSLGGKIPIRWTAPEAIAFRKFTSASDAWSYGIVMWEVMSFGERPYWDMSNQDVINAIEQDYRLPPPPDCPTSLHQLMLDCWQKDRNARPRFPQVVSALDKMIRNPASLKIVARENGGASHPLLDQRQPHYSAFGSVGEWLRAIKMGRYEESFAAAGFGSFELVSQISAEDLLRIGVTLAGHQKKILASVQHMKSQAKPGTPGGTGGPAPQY
Text: as §1

c-Met = c-Met (Homo sapiens, UniProt P08581); experiment: Radiometric filter binding kinase assay; assay type: biochemical
Text: as §1

Ret = Ret (Homo sapiens, UniProt P07949); experiment: Radiometric filter binding kinase assay; assay type: biochemical; conditions: mean of two independent experiments ± SD
Text: as §1

BRAF-V600E = BRAF-V600E (Homo sapiens, UniProt P15056, V600E); experiment: Radiometric filter binding kinase assay; assay type: biochemical
Chain of BRAF-V600E (P15056 whole entry V600E): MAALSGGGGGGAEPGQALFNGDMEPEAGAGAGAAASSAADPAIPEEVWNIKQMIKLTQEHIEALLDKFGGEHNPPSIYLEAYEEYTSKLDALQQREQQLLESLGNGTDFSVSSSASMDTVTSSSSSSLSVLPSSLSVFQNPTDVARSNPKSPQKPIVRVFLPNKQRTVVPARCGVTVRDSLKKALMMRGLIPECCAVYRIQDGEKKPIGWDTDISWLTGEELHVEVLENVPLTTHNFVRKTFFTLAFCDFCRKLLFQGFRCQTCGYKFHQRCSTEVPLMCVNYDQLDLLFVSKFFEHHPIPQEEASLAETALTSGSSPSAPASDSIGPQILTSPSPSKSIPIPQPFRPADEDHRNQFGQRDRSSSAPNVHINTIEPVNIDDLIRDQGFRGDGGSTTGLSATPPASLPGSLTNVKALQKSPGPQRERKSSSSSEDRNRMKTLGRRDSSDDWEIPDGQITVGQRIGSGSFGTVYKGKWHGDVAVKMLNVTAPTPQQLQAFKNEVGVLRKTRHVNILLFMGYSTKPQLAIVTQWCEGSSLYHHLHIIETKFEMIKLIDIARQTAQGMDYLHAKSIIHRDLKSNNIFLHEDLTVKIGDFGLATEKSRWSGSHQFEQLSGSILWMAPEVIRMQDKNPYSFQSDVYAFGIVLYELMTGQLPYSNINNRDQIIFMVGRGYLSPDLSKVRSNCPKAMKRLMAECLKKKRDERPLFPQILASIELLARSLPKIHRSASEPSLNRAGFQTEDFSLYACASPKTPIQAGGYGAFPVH
Text: as §1

FGFR3-K560E = experiment: Radiometric filter binding kinase assay; assay type: biochemical
Chain of FGFR3-K560E (P22607 397-806 K560E): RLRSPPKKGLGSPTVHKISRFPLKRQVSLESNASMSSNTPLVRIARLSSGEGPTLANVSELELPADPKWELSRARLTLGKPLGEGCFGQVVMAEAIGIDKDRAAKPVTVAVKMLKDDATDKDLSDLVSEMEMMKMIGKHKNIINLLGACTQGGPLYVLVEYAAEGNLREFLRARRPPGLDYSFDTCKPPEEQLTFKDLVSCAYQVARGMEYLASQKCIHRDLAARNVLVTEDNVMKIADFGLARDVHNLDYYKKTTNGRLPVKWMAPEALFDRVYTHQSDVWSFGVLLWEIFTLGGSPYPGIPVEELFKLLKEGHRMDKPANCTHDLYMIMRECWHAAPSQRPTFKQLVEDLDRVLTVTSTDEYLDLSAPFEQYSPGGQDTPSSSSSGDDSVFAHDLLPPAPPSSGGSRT
Text: as §1

Tek = Tek (Homo sapiens, UniProt Q02763); experiment: Radiometric filter binding kinase assay; assay type: biochemical
Text: as §1

HER-1 = HER-1 (Homo sapiens, UniProt P00533); experiment: Radiometric filter binding kinase assay; assay type: biochemical
Text: as §1

PKB = experiment: Radiometric filter binding kinase assay; assay type: biochemical
Text: as §1

Flt-3 = Flt-3 (Homo sapiens, UniProt P36888); experiment: Radiometric filter binding kinase assay; assay type: biochemical
Text: as §1

c-Abl = c-Abl (Homo sapiens, UniProt P00519); experiment: Radiometric filter binding kinase assay; assay type: biochemical
Text: as §1

CDK1/CycB = CDK1/CycB (Homo sapiens, UniProt P06493); experiment: Radiometric filter binding kinase assay; assay type: biochemical
Chain of CDK1/CycB (P06493 whole entry, species assumed): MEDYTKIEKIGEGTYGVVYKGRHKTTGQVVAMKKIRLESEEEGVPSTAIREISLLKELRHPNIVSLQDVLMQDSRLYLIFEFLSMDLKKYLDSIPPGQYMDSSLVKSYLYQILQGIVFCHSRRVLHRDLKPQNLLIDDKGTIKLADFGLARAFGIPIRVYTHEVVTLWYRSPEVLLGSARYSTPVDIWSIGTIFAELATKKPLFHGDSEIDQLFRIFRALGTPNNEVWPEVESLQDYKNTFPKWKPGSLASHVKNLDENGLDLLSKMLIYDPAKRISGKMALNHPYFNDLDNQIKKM
Chain of CDK1/CycB (P14635 whole entry partner, species assumed): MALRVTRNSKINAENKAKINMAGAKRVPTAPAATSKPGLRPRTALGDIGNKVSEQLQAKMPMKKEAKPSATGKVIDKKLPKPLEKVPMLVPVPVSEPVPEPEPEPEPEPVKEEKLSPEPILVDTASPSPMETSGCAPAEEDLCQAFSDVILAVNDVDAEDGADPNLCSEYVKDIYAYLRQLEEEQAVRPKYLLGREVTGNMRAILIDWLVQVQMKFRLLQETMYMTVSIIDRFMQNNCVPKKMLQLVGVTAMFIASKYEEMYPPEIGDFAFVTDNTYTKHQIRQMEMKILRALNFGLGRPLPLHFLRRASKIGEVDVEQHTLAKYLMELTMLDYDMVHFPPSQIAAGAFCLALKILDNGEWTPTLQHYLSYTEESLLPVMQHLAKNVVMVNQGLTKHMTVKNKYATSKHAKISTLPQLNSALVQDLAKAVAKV
Text: as §1

Jak2 = Jak2 (Homo sapiens, UniProt O60674); experiment: Radiometric filter binding kinase assay; assay type: biochemical
Text: as §1

c-Src = c-Src (Homo sapiens, UniProt P12931); experiment: Radiometric filter binding kinase assay; assay type: biochemical; conditions: mean of two independent experiments ± SD
Text: as §1

Chain of PDK1 (O15530 whole entry): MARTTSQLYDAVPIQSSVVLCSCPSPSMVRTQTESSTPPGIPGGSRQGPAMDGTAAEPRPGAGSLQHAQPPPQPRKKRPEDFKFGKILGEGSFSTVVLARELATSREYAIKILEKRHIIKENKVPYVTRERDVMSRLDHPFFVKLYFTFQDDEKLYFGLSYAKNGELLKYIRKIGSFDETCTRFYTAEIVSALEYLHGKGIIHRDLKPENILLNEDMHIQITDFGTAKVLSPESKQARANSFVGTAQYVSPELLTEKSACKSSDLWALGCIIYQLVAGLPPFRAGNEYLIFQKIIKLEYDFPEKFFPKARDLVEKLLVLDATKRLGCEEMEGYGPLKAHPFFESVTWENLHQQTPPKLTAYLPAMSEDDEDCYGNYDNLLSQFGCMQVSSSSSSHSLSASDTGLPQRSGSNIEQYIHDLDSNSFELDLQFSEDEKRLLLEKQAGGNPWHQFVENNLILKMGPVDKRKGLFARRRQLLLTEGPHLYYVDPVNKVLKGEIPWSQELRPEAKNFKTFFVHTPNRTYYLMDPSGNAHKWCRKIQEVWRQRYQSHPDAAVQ

CCc1nc2nc(Nc3ccc4nc(OCCN5CCOCC5)ccc4c3)nc(NC(C)(C)C)c2[nH]1 [QAP 1]
8 µM: GI50 (HL-60 cells)
1.7 ± 0.5 µM: IC50 (c-Src)
1.35 ± 0.05 µM: IC50 (Ret)
> 10 µM: IC50 (PDK1) | IC50 (Fak) | IC50 (Axl) | IC50 (IGF-1R) | IC50 (KDR) | IC50 (c-Abl-T315I) | IC50 (EphB4) | IC50 (c-Met) | IC50 (BRAF-V600E) | IC50 (FGFR3-K560E) | IC50 (Tek) | IC50 (HER-1) | IC50 (PKB) | IC50 (Flt-3) | IC50 (c-Abl) | IC50 (CDK1/CycB) | IC50 (Jak2)
